From ChEMBL document CHEMBL4507319 (2021)

What was measured:
[1] = target: 5'-AMP-activated protein kinase catalytic subunit alpha-1 (Homo sapiens, UniProt Q13131); experiment: Cellular mechanistic pACC assay using IMR-32 neuroblastoma cells; type: cell-based
[2] = target: BDNF/NT-3 growth factors receptor (Homo sapiens) (UniProt Q16620); details: Compound concentration 1000.0 nM
[3] = target: Platelet-derived growth factor receptor beta (Homo sapiens) (UniProt P09619); details: Compound concentration 1000.0 nM
[4] = target: Serine/threonine-protein kinase PLK3 (Homo sapiens) (UniProt Q9H4B4); details: Compound concentration 1000.0 nM
[5] = system: Mast/stem cell growth factor receptor Kit (Homo sapiens), P10721 [D816H]; details: Compound concentration 1000.0 nM
Chain of Mast/stem cell growth factor receptor Kit (Homo sapiens), P10721 [D816H] (P10721 whole entry D816H): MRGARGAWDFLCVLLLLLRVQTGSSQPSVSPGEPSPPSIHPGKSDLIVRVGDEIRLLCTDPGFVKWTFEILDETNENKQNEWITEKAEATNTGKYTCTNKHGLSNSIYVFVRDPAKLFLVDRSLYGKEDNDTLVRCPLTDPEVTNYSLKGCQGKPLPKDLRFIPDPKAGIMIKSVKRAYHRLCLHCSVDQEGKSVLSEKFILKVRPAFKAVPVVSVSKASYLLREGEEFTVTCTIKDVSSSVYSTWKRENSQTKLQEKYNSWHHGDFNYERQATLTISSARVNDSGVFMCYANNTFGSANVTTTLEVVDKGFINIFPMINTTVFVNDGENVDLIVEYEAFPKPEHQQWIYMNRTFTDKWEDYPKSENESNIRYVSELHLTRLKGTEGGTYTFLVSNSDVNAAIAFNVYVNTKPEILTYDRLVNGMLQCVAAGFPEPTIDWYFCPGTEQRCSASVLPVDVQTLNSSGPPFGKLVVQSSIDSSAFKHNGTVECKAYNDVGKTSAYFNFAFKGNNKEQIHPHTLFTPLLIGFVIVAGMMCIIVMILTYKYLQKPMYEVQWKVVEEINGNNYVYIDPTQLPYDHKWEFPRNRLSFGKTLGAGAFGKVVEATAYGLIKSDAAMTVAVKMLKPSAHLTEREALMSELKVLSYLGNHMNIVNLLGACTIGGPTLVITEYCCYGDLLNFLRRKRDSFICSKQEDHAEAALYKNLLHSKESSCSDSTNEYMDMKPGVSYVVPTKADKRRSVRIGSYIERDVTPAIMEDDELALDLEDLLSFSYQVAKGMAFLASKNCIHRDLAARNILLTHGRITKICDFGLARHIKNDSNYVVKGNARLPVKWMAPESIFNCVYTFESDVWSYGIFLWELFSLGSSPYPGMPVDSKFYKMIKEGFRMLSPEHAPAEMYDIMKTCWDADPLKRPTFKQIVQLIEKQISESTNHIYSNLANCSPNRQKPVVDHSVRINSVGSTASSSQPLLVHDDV

[6] = target: T1, Serine/threonine-protein kinase 17A (Homo sapiens) (UniProt Q9UEE5); details: Compound concentration 1000.0 nM
T1 sequence (whole entry): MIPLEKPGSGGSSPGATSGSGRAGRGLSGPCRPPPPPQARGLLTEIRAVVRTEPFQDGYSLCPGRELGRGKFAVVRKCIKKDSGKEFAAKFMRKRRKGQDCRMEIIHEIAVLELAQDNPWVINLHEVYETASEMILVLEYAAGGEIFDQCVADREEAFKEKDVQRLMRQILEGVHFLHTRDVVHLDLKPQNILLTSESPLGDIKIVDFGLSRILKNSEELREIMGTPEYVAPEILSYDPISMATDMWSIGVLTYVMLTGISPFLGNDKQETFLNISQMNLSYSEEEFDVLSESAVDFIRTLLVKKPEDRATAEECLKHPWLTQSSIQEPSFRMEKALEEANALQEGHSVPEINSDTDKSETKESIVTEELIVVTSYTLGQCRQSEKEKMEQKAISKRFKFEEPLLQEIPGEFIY

[7] = target: Epithelial discoidin domain-containing receptor 1 (Homo sapiens) (UniProt Q08345); details: Compound concentration 1000.0 nM
Chain of Epithelial discoidin domain-containing receptor 1 (Homo sapiens) (Q08345 whole entry, the tested form may be a part): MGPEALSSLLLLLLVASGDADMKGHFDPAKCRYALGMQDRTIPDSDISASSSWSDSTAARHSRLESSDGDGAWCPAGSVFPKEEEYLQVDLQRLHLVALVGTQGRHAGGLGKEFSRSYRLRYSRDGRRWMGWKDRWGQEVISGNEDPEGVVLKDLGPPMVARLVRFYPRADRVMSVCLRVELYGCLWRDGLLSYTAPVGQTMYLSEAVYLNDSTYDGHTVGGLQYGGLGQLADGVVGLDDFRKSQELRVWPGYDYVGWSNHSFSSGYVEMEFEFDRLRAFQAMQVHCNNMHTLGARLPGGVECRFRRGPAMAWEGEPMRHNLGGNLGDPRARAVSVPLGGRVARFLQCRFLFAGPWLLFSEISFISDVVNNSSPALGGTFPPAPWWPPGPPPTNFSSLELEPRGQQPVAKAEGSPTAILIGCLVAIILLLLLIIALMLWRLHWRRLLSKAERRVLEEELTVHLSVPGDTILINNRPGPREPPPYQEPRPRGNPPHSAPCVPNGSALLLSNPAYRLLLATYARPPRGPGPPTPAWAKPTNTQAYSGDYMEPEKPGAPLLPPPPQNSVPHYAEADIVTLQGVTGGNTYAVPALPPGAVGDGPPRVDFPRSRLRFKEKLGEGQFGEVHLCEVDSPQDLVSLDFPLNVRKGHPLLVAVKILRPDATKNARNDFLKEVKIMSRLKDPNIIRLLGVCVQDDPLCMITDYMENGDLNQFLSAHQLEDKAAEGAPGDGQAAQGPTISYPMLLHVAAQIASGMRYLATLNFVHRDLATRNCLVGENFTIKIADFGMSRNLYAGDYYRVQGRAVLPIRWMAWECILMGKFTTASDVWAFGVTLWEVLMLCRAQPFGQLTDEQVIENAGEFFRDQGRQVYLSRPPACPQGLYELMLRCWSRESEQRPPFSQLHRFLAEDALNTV

[8] = target: Cyclin-dependent kinase 4 (Homo sapiens) (UniProt P11802); details: Compound concentration 1000.0 nM
Chain of Cyclin-dependent kinase 4 (Homo sapiens) (P11802 whole entry): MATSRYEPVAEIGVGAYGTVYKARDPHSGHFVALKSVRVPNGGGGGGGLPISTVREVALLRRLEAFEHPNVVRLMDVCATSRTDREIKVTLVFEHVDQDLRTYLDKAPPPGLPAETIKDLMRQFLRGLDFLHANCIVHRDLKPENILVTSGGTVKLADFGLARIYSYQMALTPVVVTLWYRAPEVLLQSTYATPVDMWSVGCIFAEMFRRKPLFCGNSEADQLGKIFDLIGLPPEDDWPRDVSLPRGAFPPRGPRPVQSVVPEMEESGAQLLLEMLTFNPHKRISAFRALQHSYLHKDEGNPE

[9] = target: T2, Serine/threonine-protein kinase TAO2 (Homo sapiens) (UniProt Q9UL54); details: Compound concentration 1000.0 nM
T2 sequence (whole entry): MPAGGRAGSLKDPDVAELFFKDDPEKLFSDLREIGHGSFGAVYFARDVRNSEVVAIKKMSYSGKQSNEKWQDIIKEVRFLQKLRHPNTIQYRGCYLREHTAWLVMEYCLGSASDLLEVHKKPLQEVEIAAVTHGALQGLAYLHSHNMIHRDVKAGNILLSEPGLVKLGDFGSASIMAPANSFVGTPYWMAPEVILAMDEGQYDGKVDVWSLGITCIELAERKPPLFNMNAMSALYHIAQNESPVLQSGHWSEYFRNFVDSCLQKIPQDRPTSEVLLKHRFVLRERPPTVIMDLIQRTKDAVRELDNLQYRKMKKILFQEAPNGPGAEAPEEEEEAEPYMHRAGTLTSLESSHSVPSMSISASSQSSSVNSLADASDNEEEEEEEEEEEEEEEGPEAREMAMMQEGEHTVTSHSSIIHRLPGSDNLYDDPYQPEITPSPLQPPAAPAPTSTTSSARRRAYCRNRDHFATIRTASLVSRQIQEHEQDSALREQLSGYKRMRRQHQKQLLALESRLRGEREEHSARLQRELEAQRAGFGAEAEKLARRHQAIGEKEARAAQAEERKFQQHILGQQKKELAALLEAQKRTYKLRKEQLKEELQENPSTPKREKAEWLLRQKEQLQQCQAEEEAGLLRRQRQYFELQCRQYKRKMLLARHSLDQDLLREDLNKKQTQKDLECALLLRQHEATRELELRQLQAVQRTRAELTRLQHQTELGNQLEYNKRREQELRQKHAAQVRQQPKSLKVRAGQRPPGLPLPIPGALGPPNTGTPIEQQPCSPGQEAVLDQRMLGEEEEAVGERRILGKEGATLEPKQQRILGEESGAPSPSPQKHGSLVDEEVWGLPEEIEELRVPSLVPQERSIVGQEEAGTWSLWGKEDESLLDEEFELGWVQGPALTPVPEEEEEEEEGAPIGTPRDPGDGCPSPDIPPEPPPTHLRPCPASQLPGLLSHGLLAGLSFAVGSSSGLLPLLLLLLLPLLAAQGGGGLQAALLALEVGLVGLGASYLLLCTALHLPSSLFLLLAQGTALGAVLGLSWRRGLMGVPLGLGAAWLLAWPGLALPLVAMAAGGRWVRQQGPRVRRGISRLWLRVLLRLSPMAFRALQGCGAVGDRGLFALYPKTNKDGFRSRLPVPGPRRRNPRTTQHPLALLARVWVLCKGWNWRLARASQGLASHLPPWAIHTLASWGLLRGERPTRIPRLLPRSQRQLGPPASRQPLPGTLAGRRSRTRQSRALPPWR

[10] = target: Vascular endothelial growth factor receptor 2 (Homo sapiens) (UniProt P35968); details: Compound concentration 1000.0 nM
Chain of Vascular endothelial growth factor receptor 2 (Homo sapiens) (P35968 whole entry): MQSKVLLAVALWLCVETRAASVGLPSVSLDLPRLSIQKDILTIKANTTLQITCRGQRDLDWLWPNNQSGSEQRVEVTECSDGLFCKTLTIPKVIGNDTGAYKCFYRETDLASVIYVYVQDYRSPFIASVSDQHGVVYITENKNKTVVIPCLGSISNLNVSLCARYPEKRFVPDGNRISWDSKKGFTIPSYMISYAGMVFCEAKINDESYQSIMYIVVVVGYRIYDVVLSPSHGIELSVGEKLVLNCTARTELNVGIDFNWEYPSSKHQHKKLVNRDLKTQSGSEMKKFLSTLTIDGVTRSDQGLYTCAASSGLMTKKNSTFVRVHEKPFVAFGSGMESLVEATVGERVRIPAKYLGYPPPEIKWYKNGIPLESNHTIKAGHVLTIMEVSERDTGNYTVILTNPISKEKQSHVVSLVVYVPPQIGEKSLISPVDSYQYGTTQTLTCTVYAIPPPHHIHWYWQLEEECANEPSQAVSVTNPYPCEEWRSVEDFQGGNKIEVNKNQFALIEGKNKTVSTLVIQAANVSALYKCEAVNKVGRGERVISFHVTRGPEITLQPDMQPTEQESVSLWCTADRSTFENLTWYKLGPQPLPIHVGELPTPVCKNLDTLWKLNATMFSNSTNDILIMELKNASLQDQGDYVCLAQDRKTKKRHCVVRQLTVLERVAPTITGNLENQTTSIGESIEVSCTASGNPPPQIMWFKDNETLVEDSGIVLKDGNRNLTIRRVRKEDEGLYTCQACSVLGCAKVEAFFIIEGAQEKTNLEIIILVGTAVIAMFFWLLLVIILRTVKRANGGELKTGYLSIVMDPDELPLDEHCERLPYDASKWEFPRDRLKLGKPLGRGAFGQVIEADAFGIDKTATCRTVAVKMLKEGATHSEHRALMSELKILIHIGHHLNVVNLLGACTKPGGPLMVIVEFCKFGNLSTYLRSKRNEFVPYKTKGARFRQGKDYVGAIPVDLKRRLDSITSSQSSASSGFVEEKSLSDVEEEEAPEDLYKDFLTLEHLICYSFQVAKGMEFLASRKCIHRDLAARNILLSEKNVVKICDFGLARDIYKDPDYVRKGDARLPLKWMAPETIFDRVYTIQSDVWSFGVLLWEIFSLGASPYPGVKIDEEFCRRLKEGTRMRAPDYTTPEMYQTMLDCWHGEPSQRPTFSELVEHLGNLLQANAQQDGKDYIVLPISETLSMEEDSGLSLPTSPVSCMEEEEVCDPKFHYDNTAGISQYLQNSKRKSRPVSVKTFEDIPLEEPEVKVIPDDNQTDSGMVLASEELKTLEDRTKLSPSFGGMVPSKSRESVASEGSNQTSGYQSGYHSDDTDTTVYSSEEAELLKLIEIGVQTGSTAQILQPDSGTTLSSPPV

[11] = target: T3, MAP kinase-activated protein kinase 5 (Homo sapiens) (UniProt Q8IW41); details: Compound concentration 1000.0 nM
T3 sequence (whole entry): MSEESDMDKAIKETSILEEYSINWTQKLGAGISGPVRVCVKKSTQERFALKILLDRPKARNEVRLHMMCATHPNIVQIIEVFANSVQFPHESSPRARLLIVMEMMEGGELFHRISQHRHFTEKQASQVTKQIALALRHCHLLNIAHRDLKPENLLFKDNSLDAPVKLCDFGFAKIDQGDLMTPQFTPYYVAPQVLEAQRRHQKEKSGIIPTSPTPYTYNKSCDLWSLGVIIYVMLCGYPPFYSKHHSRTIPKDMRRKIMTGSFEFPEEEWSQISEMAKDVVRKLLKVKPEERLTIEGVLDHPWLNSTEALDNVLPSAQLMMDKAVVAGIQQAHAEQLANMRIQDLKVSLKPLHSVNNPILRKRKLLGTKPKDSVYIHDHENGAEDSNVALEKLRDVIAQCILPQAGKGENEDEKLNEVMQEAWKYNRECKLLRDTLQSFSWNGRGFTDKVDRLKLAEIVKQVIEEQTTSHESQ

[12] = target: Cyclin-dependent kinase 15 (Homo sapiens) (UniProt Q96Q40); details: Compound concentration 1000.0 nM
Chain of Cyclin-dependent kinase 15 (Homo sapiens) (Q96Q40 whole entry, canonical isoform): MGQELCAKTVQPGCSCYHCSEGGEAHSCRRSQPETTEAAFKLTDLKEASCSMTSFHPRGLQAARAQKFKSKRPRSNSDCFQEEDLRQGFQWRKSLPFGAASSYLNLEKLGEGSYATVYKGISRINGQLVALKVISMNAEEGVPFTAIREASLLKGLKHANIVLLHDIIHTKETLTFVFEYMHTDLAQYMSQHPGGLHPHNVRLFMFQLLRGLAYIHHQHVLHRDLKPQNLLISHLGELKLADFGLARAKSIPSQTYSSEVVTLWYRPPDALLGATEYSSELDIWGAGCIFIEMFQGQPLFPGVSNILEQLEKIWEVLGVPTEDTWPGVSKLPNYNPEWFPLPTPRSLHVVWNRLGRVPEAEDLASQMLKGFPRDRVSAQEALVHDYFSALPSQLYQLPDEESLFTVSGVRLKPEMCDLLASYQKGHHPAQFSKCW

[13] = target: Phosphatidylinositol 4,5-bisphosphate 3-kinase catalytic subunit alpha isoform (Homo sapiens) (UniProt P42336); details: Compound concentration 1000.0 nM
[14] = target: Sodium-dependent serotonin transporter (Homo sapiens) (UniProt P31645); details: Compound concentration 10.0 uM
Chain of Sodium-dependent serotonin transporter (Homo sapiens) (P31645 whole entry, looked up): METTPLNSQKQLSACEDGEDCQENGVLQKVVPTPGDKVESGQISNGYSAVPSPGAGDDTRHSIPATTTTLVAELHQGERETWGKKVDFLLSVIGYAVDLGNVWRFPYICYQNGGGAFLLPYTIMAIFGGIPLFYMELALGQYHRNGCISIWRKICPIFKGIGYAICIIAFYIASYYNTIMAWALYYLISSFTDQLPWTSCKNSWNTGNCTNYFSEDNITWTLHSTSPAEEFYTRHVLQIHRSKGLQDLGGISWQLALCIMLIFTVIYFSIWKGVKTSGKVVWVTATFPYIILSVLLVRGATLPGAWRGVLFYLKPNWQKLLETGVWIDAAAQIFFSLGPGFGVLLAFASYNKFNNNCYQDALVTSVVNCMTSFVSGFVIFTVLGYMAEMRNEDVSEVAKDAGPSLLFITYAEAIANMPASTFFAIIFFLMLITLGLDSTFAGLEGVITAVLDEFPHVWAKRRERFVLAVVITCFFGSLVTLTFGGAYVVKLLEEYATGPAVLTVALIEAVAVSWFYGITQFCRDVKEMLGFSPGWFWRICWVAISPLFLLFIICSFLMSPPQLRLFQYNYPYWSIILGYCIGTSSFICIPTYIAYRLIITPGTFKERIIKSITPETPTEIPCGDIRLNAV

[15] = target: Receptor-interacting serine/threonine-protein kinase 2 (Homo sapiens) (UniProt O43353); details: Compound concentration 1000.0 nM
[16] = target: Death-associated protein kinase 3 (Homo sapiens) (UniProt O43293); details: Compound concentration 1000.0 nM
Chain of Death-associated protein kinase 3 (Homo sapiens) (O43293 whole entry, looked up): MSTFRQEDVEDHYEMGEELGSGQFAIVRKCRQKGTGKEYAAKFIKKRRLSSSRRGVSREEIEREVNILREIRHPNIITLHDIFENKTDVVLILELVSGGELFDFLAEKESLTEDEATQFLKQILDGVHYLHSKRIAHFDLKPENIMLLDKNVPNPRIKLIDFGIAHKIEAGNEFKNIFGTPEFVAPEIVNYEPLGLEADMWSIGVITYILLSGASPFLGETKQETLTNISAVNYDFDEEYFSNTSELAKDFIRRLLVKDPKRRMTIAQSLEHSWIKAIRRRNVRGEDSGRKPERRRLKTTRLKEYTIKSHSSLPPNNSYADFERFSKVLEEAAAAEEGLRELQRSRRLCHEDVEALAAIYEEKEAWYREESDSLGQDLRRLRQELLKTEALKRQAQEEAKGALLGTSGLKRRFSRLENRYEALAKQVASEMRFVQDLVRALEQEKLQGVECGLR

Structure (SMILES)	IC50 [1]	residual activity [2] [%]	residual activity [3] [%]	residual activity [4] [%]	residual activity [5] [%]	residual activity [6] [%]	residual activity [7] [%]	residual activity [8] [%]	residual activity [9] [%]	residual activity [10] [%]	residual activity [11] [%]	residual activity [12] [%]	residual activity [13] [%]	inhibition [14] [%]	residual activity [15] [%]	residual activity [16] [%]
CC1=C(C#N)C(c2ccc3c(c2)c(NC(=O)c2ccccc2C)nn3C)C(C#N)=C(C)N1 [BAY-974]	> 30000 nM (not active)	72	94	80	64	82	74	100	70	80	100	100	100	-6.29	100	88
CCc1ccccc1C(=O)Nc1n[nH]c2c(C)c(F)c(C3C(C#N)=C(C)N(C)C(C)=C3C#N)cc12 [BAY-3827]	150 nM	100	82	100	100	89	48	100	96	88	100	95	100	-6.24	100	71
